From patent publication US12577231B2, “Androgen receptor PROTACS” (GlaxoSmithKline Intellectual Property Development Limited, priority 2023, dated 2026)

Molecular target: T1, Androgen Receptor dual T878A/L702H mutant protein (Homo sapiens, UniProt P10275, L702H/T878A)
T1 construct: host or cells: MDA-PCa-2b
T1 sequence (P10275 1-920 L702H/T878A): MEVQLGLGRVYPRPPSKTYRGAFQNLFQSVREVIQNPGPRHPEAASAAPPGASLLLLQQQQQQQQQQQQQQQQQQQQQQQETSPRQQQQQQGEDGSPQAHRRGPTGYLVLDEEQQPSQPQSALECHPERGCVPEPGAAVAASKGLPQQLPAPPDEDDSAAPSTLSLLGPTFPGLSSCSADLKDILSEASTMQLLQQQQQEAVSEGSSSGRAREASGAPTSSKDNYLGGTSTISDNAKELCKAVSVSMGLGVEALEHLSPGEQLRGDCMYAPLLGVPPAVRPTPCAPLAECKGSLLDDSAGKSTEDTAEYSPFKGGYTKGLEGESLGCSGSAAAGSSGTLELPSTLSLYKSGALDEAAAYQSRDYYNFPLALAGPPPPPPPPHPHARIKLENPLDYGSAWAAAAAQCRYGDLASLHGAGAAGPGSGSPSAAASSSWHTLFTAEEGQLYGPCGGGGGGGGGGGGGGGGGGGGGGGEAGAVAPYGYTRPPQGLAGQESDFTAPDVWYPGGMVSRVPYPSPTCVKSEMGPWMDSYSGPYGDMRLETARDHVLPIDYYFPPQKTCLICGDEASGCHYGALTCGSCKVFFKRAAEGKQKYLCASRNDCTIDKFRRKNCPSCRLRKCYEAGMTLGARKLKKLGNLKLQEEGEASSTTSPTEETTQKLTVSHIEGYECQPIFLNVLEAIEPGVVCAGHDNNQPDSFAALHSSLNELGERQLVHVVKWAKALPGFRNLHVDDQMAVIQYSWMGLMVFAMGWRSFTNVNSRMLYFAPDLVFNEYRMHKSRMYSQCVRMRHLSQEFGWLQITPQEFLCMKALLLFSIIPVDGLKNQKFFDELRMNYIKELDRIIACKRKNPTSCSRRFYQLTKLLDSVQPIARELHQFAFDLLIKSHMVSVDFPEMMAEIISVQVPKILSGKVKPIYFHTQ
Assay: Dual Mutant (T878A/L702H) Androgen Receptor Degradation Assay (HTRF, MDA-PCa-2b cells)
Format: cell-based
Conditions: 18 h, 18 h incubation, read-out: mean asymptote max
Experimental: Degradation of Androgen Receptor dual T878A/L702H mutant protein in human MDA-PCa-2b (ATCC) cells treated with PROTACs was quantified using the HTRF Human Androgen Receptor Detection Kit (PerkinElmer) in 384 well assay plate format. 10 mM DMSO (Sigma-Aldrich) stock solutions of PROTACs were prepared and diluted across an 11 concentration, 3-fold increment range, and 25 nL dispensed into a white opaque bottomed 384 well assay plate (Thermofisher) using an acoustic ECHO dispenser (Labcyte). Cells were cultured in growth medium (BRFF—HPC-1 (Athena ES) supplemented with 20% FBS (Gibco), penicillin 50U/mL and streptomycin 50 μg/mL (Gibco, #15140-122)) in collagen I or poly-D-lysine coated T175 flasks (Corning, #356487 or #356539, respectively). For the assay, cells were harvested from the flask, centrifuged at 200 g for 5 min and then resuspended in the growth medium. 25 μl of cell suspension containing 10,000 cells was dispensed into each well of the assay plate containing the test compounds, which was then incubated for 18 h at 37° C./5% CO2. Control wells were included on each assay plate, with assay medium without cells being the no AR remaining 100% effect control, and cells treated with DMSO vehicle only, without PROTAC, the 0% effect control. After 18 h incubation 8 μl of supplemented lysis buffer from HTRF kit was added to each well and the plate shaken at 500 rpm for 1 h at room temperature. 8 μl of antibody mix in Detection buffer from HTRF kit was added to each well and the plate was incubated for 2 h in dark at mom temperature. The fluorescence was measured at both 620 nm and 665 nm using an excitation wavelength of 337 nm with a PHERAstar microplate reader (BMG Labtech) and the % AR protein remaining in each well was calculated by normalising the HTRF ratio (665 nm signal/620 nm signal) value to the control wells mentioned above. Parameters corresponding to the potency and efficacy estimates of the PROTACs were obtained from these normalised values using curve fitting software (IDBS ActivityBase). These included the DC50 and the Dmax estimates. Two versions of the DC50, called relative DC50 and absolute DC50, were typically generated. These are the inflection point of a fitted 4 parameter sigmoidal response curve and the interpolated concentration of PROTAC corresponding to 50% of the protein being degraded, respectively. The Dmax parameter was the maximum experimentally observed degradation and the asymptote max parameter the fitted response curve asymptote maximum.

Dmax [%]	Structure (SMILES)
≥ 50	CC1(C)[C@H](NC(=O)c2ccc(N3CCC(CN4CCC(n5ccc6c(N7CCC(=O)NC7=O)cc(F)cc65)CC4)CC3)c(F)c2)C(C)(C)[C@H]1Oc1ccc(C#N)c2ncccc12 [Example 32, N-((1r,3r)-3-((8-Cyanoquinolin-5-yl)oxy)-2,2,4,4-tetramethylcyclobutyl)-4-(4-((4-(4-(2,4-dioxotetrahydropyrimidin-1(2H)-yl)-6-fluoro-1H-indol-1-yl)piperidin-1-yl)methyl)piperidin-1-yl)-3-fluorobenzamide]
41	CC1(C)[C@H](NC(=O)c2ccc(N3CCC(CN4CC[C@@H](n5ncc6c(N7CCC(=O)NC7=O)cccc65)C4)CC3)c(F)c2)C(C)(C)[C@H]1Oc1ccc(C#N)c2ncccc12 [Example 36, N-((1r,3r)-3-((8-Cyanoquinolin-5-yl)oxy)-2,2,4,4-tetramethylcyclobutyl)-4-(4-(((R)-3-(4-(2,4-dioxotetrahydropyrimidin-1(2H)-yl)-1H-indazol-1-yl)pyrrolidin-1-yl)methyl)piperidin-1-yl)-3-fluorobenzamide]
≥ 50	CC1(C)[C@H](NC(=O)c2ccc(N3CCC(CN4CCC(n5ncc6c(N7CCC(=O)NC7=O)c(F)ccc65)CC4)CC3)c(F)c2)C(C)(C)[C@H]1Oc1ccc(C#N)c2ncccc12 [Example 50, N-((1r,3r)-3-((8-Cyanoquinolin-5-yl)oxy)-2,2,4,4-tetramethylcyclobutyl)-4-(4-((4-(4-(2,4-dioxotetrahydropyrimidin-1(2H)-yl)-5-fluoro-1H-indazol-1-yl)piperidin-1-yl)methyl)piperidin-1-yl)-3-fluorobenzamide]
≥ 50	CC1(C)[C@H](NC(=O)c2ccc(N3CC[C@H](CN4CCC(n5ncc6c(N7CCC(=O)NC7=O)cccc65)CC4)C3)c(F)c2)C(C)(C)[C@H]1Oc1ccc(C#N)c2ncccc12 [Example 34, N-((1r,3R)-3-((8-Cyanoquinolin-5-yl)oxy)-2,2,4,4-tetramethylcyclobutyl)-4-((R)-3-((4-(4-(2,4-dioxotetrahydropyrimidin-1(2H)-yl)-1H-indazol-1-yl)piperidin-1-yl)methyl)pyrrolidin-1-yl)-3-fluorobenzamide]
≥ 50	CC1(C)[C@H](NC(=O)c2ccc(N3CCC(CN4CC[C@H](n5ncc6c(N7CCC(=O)NC7=O)cccc65)[C@H](F)C4)CC3)c(F)c2)C(C)(C)[C@H]1Oc1ccc(C#N)c2ncccc12 [Example 46, N-((1r,3r)-3-((8-Cyanoquinolin-5-yl)oxy)-2,2,4,4-tetramethylcyclobutyl)-4-(4-(((3R,4S)-4-(4-(2,4-dioxotetrahydropyrimidin-1(2H)-yl)-1H-indazol-1-yl)-3-fluoropiperidin-1-yl)methyl)piperidin-1-yl)-3-fluorobenzamide]
≥ 50	CC1(C)[C@H](NC(=O)c2ccc(N3CCC(CN4CCC(n5ncc6c(N7CCC(=O)NC7=O)cc(F)cc65)CC4)CC3)c(F)c2)C(C)(C)[C@H]1Oc1ccc(C#N)c2ncccc12 [Example 38, N-((1r,3r)-3-((8-Cyanoquinolin-5-yl)oxy)-2,2,4,4-tetramethylcyclobutyl)-4-(4-((4-(4-(2,4-dioxotetrahydropyrimidin-1(2H)-yl)-6-fluoro-1H-indazol-1-yl)piperidin-1-yl)methyl)piperidin-1-yl)-3-fluorobenzamide]
≥ 50	CC1(C)[C@H](NC(=O)c2ccc(N3CCC(CN4CCC(n5ccc6c(N7CCC(=O)NC7=O)cccc65)CC4)CC3)cc2)C(C)(C)[C@H]1Oc1ccc(C#N)c2ncccc12 [Example 43, N-((1r,3r)-3-((8-Cyanoquinolin-5-yl)oxy)-2,2,4,4-tetramethylcyclobutyl)-4-(4-((4-(4-(2,4-dioxotetrahydropyrimidin-1(2H)-yl)-1H-indol-1-yl)piperidin-1-yl)methyl)piperidin-1-yl)benzamide]
≥ 50	CC1(C)[C@H](NC(=O)c2ccc(N3CCC(CN4CC[C@H](n5ncc6c(N7CCC(=O)NC7=O)cccc65)C4)CC3)c(F)c2)C(C)(C)[C@H]1Oc1ccc(C#N)c2ncccc12 [Example 37, N-((1r,3r)-3-((8-Cyanoquinolin-5-yl)oxy)-2,2,4,4-tetramethylcyclobutyl)-4-(4-(((S)-3-(4-(2,4-dioxotetrahydropyrimidin-1(2H)-yl)-1H-indazol-1-yl)pyrrolidin-1-yl)methyl)piperidin-1-yl)-3-fluorobenzamide]
≥ 50	CC1(C)[C@H](NC(=O)c2ccc(N3CCC4(CC3)CC(N3CCC(n5ncc6c(N7CCC(=O)NC7=O)cccc65)CC3)C4)c(F)c2)C(C)(C)[C@H]1Oc1ccc(C#N)c2ncccc12 [Example 49, N-((1r,3r)-3-((8-Cyanoquinolin-5-yl)oxy)-2,2,4,4-tetramethylcyclobutyl)-4-(2-(4-(4-(2,4-dioxotetrahydropyrimidin-1(2H)-yl)-1H-indazol-1-yl)piperidin-1-yl)-7-azaspiro[3.5]nonan-7-yl)-3-fluorobenzamide]
≥ 50	CC1(C)[C@H](NC(=O)c2ccc(N3CCC(CN4CCC(n5ncc6c(N7CCC(=O)NC7=O)cc(Cl)cc65)CC4)CC3)c(F)c2)C(C)(C)[C@H]1Oc1ccc(C#N)c2ncccc12 [Example 41, 4-(4-((4-(6-Chloro-4-(2,4-dioxotetrahydropyrimidin-1(2H)-yl)-1H-indazol-1-yl)piperidin-1-yl)methyl)piperidin-1-yl)-/-((1r,3r)-3-((8-cyanoquinolin-5-yl)oxy)-2,2,4,4-tetramethylcyclobutyl)-3-fluorobenzamide]
≥ 50	CC1(C)[C@H](NC(=O)c2ccc(N3CCC(CN4CCC(n5ncc6c(N7CCC(=O)NC7=O)cccc65)CC4)CC3)c(F)c2)C(C)(C)[C@H]1Oc1ccc(C#N)c2ncccc12 [Example 6, N-((1r,3r)-3-((8-Cyanoquinolin-5-yl)oxy)-2,2,4,4-tetramethylcyclobutyl)-4-(4-((4-(4-(2,4-dioxotetrahydropyrimidin-1(2H)-yl)-1H-indazol-1-yl)piperidin-1-yl)methyl)piperidin-1-yl)-3-fluorobenzamide]
≥ 50	COc1cc(O[C@H]2C(C)(C)[C@H](NC(=O)c3ccc(N4CCC(CN5CCC(n6ncc7c(N8CCC(=O)NC8=O)cccc76)CC5)CC4)cc3)C2(C)C)ccc1C#N [Example 15, N-((1r,3r)-3-(4-Cyano-3-methoxyphenoxy)-2,2,4,4-tetramethylcyclobutyl)-4-(4-((4-(4-(2,4-dioxotetrahydropyrimidin-1(2H)-yl)-1H-indazol-1-yl)piperidin-1-yl)methyl)piperidin-1-yl)benzamide]
≥ 50	CC1(C)[C@H](NC(=O)c2ccc(N3CCC(CN4CCC(n5ccc6c(N7CCC(=O)NC7=O)ncnc65)CC4)CC3)c(F)c2)C(C)(C)[C@H]1Oc1ccc(C#N)c2ncccc12 [Example 47, N-((1r,3r)-3-((8-Cyanoquinolin-5-yl)oxy)-2,2,4,4-tetramethylcyclobutyl)-4-(4-((4-(4-(2,4-dioxotetrahydropyrimidin-1(2H)-yl)-7H-pyrrolo[2,3-d]pyrimidin-7-yl)piperidin-1-yl)methyl)piperidin-1-yl)-3-fluorobenzamide]
